# Measured values: PubChem BioAssay (NCI)
#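 Assay format: 96-well plates, 48-hour exposure. At the TGI there is no net growth.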
# Key:
# Assay in all cases: DTP human tumour cell line panel, 48 h
# OVCAR-4 ovarian = tested on: OVCAR-4 ovarian
# SF-539 CNS = tested on: SF-539 CNS
# M14 melanoma = tested on: M14 melanoma
# OVCAR-8 ovarian = tested on: OVCAR-8 ovarian
# HOP-18 NSCLC = tested on: HOP-18 NSCLC
# HCT-15 colon = tested on: HCT-15 colon
# SK-MEL-2 melanoma = tested on: SK-MEL-2 melanoma
# KM12 colon = tested on: KM12 colon
# SK-MEL-28 melanoma = tested on: SK-MEL-28 melanoma
# UACC-257 melanoma = tested on: UACC-257 melanoma
# SNB-75 CNS = tested on: SNB-75 CNS
# CAKI-1 renal = tested on: CAKI-1 renal
# SF-268 CNS = tested on: SF-268 CNS
# RXF-631 renal = tested on: RXF-631 renal
# NCI-H226 lung = tested on: NCI-H226 lung
# RXF 393 renal = tested on: RXF 393 renal
# DLD-1 colon = tested on: DLD-1 colon
# UO-31 renal = tested on: UO-31 renal
# 786-0 renal = tested on: 786-0 renal
# HCT-116 colon = tested on: HCT-116 colon
# MALME-3M melanoma = tested on: MALME-3M melanoma
# HOP-92 NSCLC = tested on: HOP-92 NSCLC
# A498 renal = tested on: A498 renal
# U251 CNS = tested on: U251 CNS
# SNB-78 CNS = tested on: SNB-78 CNS
# NCI-H522 lung = tested on: NCI-H522 lung
# IGROV1 ovarian = tested on: IGROV1 ovarian
# LXFL 529 NSCLC = tested on: LXFL 529 NSCLC
# OVCAR-3 ovarian = tested on: OVCAR-3 ovarian
# SK-OV-3 ovarian = tested on: SK-OV-3 ovarian
# NCI-H23 lung = tested on: NCI-H23 lung
# A549 NSCLC = tested on: A549 NSCLC
# SR leukemia = tested on: SR leukemia
# HOP-62 NSCLC = tested on: HOP-62 NSCLC
# XF 498 CNS = tested on: XF 498 CNS
# COLO 205 colon = tested on: COLO 205 colon
# EKVX NSCLC = tested on: EKVX NSCLC
# RPMI-8226 leukemia = tested on: RPMI-8226 leukemia
# SNB-19 CNS = tested on: SNB-19 CNS
# M19-MEL melanoma = tested on: M19-MEL melanoma
# MOLT-4 leukemia = tested on: MOLT-4 leukemia
# CCRF-CEM leukemia = tested on: CCRF-CEM leukemia
# ACHN renal = tested on: ACHN renal
# DMS 273 small cell lung = tested on: DMS 273 small cell lung
# UACC-62 melanoma = tested on: UACC-62 melanoma
# K-562 leukemia = tested on: K-562 leukemia
# OVCAR-5 ovarian = tested on: OVCAR-5 ovarian
# NCI-H460 lung = tested on: NCI-H460 lung
# SN12C renal = tested on: SN12C renal
# SW-620 colon = tested on: SW-620 colon
# HT29 colon = tested on: HT29 colon
# DMS 114 small cell lung = tested on: DMS 114 small cell lung
# TK-10 renal = tested on: TK-10 renal
# SK-MEL-5 melanoma = tested on: SK-MEL-5 melanoma
# KM20L2 colon = tested on: KM20L2 colon
# HL-60(TB) leukemia = tested on: HL-60(TB) leukemia
# HCC-2998 colon = tested on: HCC-2998 colon
# SF-295 CNS = tested on: SF-295 CNS
compound,measurement,setting,value
COc1ccc(Cc2nc3ccccc3s2)cc1OC,TGI,OVCAR-4 ovarian,37.7 µM
same,TGI,SF-539 CNS,31.2 µM
same,TGI,M14 melanoma,31.6 µM
same,TGI,OVCAR-8 ovarian,30.9 µM
same,TGI,HOP-18 NSCLC,62.2 µM
same,TGI,HCT-15 colon,60.7 µM
same,TGI,SK-MEL-2 melanoma,42.6 µM
same,TGI,KM12 colon,32.2 µM
same,TGI,SK-MEL-28 melanoma,31.9 µM
same,TGI,UACC-257 melanoma,32.9 µM
same,TGI,SNB-75 CNS,36.8 µM
same,TGI,CAKI-1 renal,31.3 µM
same,TGI,SF-268 CNS,29.5 µM
same,TGI,RXF-631 renal,31.7 µM
same,TGI,NCI-H226 lung,45.7 µM
same,TGI,RXF 393 renal,34.7 µM
same,TGI,DLD-1 colon,31.7 µM
same,TGI,UO-31 renal,30 µM
same,TGI,786-0 renal,31.9 µM
same,TGI,HCT-116 colon,29.2 µM
same,TGI,MALME-3M melanoma,32.6 µM
same,TGI,HOP-92 NSCLC,36.5 µM
same,TGI,A498 renal,49.5 µM
same,TGI,U251 CNS,27.7 µM
same,TGI,SNB-78 CNS,44.8 µM
same,TGI,NCI-H522 lung,32.2 µM
same,TGI,IGROV1 ovarian,35.7 µM
same,TGI,LXFL 529 NSCLC,31.4 µM
same,TGI,OVCAR-3 ovarian,31 µM
same,TGI,SK-OV-3 ovarian,43.5 µM
same,TGI,NCI-H23 lung,40.4 µM
same,TGI,A549 NSCLC,61.8 µM
same,TGI,SR leukemia,57.1 µM
same,TGI,HOP-62 NSCLC,93.5 µM
same,TGI,XF 498 CNS,28.8 µM
same,TGI,COLO 205 colon,27.7 µM
same,TGI,EKVX NSCLC,37.1 µM
same,TGI,RPMI-8226 leukemia,70.9 µM
same,TGI,SNB-19 CNS,99.9 µM
same,TGI,M19-MEL melanoma,29.4 µM
same,TGI,MOLT-4 leukemia,63.9 µM
same,TGI,CCRF-CEM leukemia,44.7 µM
same,TGI,ACHN renal,31 µM
same,TGI,DMS 273 small cell lung,29.2 µM
same,TGI,UACC-62 melanoma,31.4 µM
same,TGI,K-562 leukemia,49.6 µM
same,TGI,OVCAR-5 ovarian,37.6 µM
same,TGI,NCI-H460 lung,38.3 µM
same,TGI,SN12C renal,30.8 µM
same,TGI,SW-620 colon,32.7 µM
same,TGI,HT29 colon,35.8 µM
same,TGI,DMS 114 small cell lung,29.9 µM
same,TGI,TK-10 renal,84.7 µM
same,TGI,SK-MEL-5 melanoma,30.1 µM
same,TGI,KM20L2 colon,36.5 µM
same,TGI,HL-60(TB) leukemia,45.3 µM
same,TGI,HCC-2998 colon,49 µM
same,TGI,SF-295 CNS,28.9 µM
